One data set deals with METTL3 (Homo sapiens (Human), UniProt Q86U44). In words: TR-FRET biochemical assay (time resolved-Förster resonance energy transfer). The note with it: for LLE (lipophilic ligand efficiency, pIC50-logP): calculated with DataWarrior; for potency reduction / loss: relative to parent compound. The source says:
The bonds formed are depicted in red. The IC50 values refer to the biochemical assay based on time resolved-Forster resonance energy transfer (TR-FRET). B) Superimposition of compounds 1 (grey, from X-ray with METTL3, PDB code: 7NHI) and 2 (cyan, drawn in Pymol).

The conditions of data set [1]: Rat liver microsomes.
The next data set in a line: in vitro. As to conditions: rat, microsomes.
In the next data set the target is METTL3/METTL14 (Homo sapiens (Human), UniProt Q86U44). In words: Protein thermal shift assay, METTL3/METTL14. As to conditions: read-out: ΔTm.
Sequence of METTL3/METTL14 (Q86U44 whole entry, looked up): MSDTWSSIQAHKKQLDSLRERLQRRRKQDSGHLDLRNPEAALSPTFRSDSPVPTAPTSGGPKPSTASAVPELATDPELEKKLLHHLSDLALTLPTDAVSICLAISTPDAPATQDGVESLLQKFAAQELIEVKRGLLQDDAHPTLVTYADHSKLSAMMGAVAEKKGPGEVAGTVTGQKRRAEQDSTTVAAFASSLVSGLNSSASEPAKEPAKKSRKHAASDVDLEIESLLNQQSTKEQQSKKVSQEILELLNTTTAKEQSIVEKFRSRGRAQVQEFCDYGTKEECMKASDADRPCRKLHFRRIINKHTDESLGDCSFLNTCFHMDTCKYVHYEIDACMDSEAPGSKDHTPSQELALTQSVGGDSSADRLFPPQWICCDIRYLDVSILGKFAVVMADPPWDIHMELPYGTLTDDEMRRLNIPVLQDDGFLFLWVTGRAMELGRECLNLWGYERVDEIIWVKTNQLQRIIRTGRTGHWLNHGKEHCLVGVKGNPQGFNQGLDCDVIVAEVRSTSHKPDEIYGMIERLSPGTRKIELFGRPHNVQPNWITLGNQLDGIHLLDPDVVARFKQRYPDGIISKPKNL
Sequence of METTL3/METTL14 (Q9HCE5 whole entry partner, looked up): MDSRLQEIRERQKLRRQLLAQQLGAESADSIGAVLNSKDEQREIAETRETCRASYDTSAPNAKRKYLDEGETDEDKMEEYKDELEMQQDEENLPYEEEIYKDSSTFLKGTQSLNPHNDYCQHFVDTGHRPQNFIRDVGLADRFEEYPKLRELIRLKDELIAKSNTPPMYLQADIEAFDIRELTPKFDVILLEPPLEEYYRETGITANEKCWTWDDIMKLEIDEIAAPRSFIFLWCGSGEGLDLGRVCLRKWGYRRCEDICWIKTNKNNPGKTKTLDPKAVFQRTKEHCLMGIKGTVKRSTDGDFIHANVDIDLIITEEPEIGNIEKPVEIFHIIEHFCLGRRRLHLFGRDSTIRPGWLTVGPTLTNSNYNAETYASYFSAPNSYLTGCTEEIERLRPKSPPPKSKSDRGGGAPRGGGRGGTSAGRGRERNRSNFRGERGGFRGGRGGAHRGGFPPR
Where [2] appears, read: IC50 data for N6-adenosine-methyltransferase.

≈ marks a conversion by molar mass, not a printed value.

What is called IC50 is the concentration at which inhibition is half-maximal. In general, half-life refers to the time needed for the level to fall by half in the phase considered. Higher therefore signals slow loss. What is called kinetic solubility is the concentration staying in solution when a stock, usually in DMSO, is diluted into the medium. As a reminder, the ΔTm is the change in melting temperature against a reference sample.

Sequence of METTL3 (Q86U44 whole entry, looked up): as the sequence (Q86U44 whole entry, looked up) above
Sequence of METTL3 (Q9HCE5 whole entry partner, looked up): as the sequence (Q9HCE5 whole entry partner, looked up) above

Consider `CNc1cc(N2CCCC(O)(CNC(=O)c3ccc(CN4CCC(C)(C)CC4)cc3)C2)ncn1` (stereo not shown) [Compound 1], for which, on METTL3, the “LE (ligand efficiency)” value was 0.21 kcal.mol^-1.heavy atom count^-1 and the “LLE (lipophilic ligand efficiency, pIC50-logP)” value is on record as 2.5. Half-maximal inhibition against METTL3 (TR-FRET assay) (IC50) required 8.2 µM.
The corresponding values for `CC1(C)CCN(Cc2ccc(C(=O)NC3CCN(c4cc(NCc5ccccc5)ncn4)CC3)cn2)CC1` [Compound 6] are 0.20 kcal.mol^-1.heavy atom count^-1, 1.7 and 3.6 µM.
As to `CC1(C)CCN(Cc2ccc(N3CCOC4(CCN(c5cc(NCc6ccccc6)ncn5)CC4)C3)cn2)CC1` [Compound 7, N-Benzyl-6-(4-(6-((4,4-dimethylpiperidin-1-yl)methyl)pyridin-3-yl)-1-oxa-4,9-diazaspiro[5.5]undecan-9-yl)pyrimidin-4-amine], the IC50 against METTL3 (setting [2]) and against METTL3 (TR-FRET assay) was 0.28 µM each time.
As to `CC1(C)CCN(Cc2ccc(N3CC(=O)NC4(CCN(c5cc(NCc6ccccc6)ncn5)CC4)C3)cn2)CC1` [Compound 8, 9-(6-(Benzylamino)pyrimidin-4-yl)-4-(6-((4,4-dimethylpiperidin-1-yl)methyl)pyridin-3-yl)-1,4,9-triazaspiro[5.5]undecan-2-one], the IC50 against METTL3 (setting [2]) and against METTL3 (TR-FRET assay) was 0.037 µM each time.
Take `CC1(C)CCN(Cc2ccc(N3CC(=O)NC4(CCN(c5cc(NCc6ccccc6)ncn5)CC4)C3)cc2)CC1` [Compound 9, 9-(6-(Benzylamino)pyrimidin-4-yl)-4-(4-((4,4-dimethylpiperidin-1-yl)methyl)phenyl)-1,4,9-triazaspiro[5.5]undecan-2-one]: the IC50 on METTL3 (setting [2]) and against METTL3 (TR-FRET assay) was 0.026 µM throughout.
Regarding `CNc1cc(N2CC3(CN(c4ccc(CN5CCC(C)(C)CC5)cc4)CC(=O)N3)C2)ncn1` [Compound 11, 8-(4-((4,4-Dimethylpiperidin-1-yl)methyl)phenyl)-2-(6-(methylamino)pyrimidin-4-yl)-2,5,8-triazaspiro[3.5]nonan-6-one], at METTL3, the “LE (ligand efficiency)” value is 0.26 kcal.mol^-1.heavy atom count^-1; the “LLE (lipophilic ligand efficiency, pIC50-logP)” value is recorded as 4.5; the “potency reduction / loss” value is listed as 5 fold. At METTL3 (setting [2]), this molecule showed an IC50 of 0.44 µM. For the same molecule, on METTL3 (TR-FRET assay), it took 0.44 µM to reach half-maximal inhibition (IC50). Further, the “RLM t1/2” value in data set [1] turned out to be 70 min. Besides, the Kinetic solubility in the data set “Kinetic solubility” was 86 µM.
As for `CNc1cc(N2CCC3(CC2)CN(c2ccc(CN4CCC(C)(C)CC4)cc2)C(=O)N3)ncn1` [Compound 12], on METTL3, the “LE (ligand efficiency)” value is reported as 0.23 kcal.mol^-1.heavy atom count^-1; the “LLE (lipophilic ligand efficiency, pIC50-logP)” value was 2.6; the “potency reduction / loss” value is on record as 20 fold. Further, half-maximal inhibition on METTL3 (TR-FRET assay) (IC50) required 1.8 µM.
Regarding `CN(C)c1cc(N2CCC3(CC2)CN(c2ccc(CN4CCC(C)(C)CC4)cc2)CC(=O)N3)ncn1` [Compound 14], at METTL3, the “LE (ligand efficiency)” value is 0.23 kcal.mol^-1.heavy atom count^-1 and the “LLE (lipophilic ligand efficiency, pIC50-logP)” value is listed as 3.2. The molecule further gave an IC50 on METTL3 (TR-FRET assay) of 0.97 µM.
Consider `CC(C)Nc1cc(N2CCC3(CC2)CN(c2ccc(CN4CCC(C)(C)CC4)cc2)CC(=O)N3)ncn1` [Compound 15, 4-(4-((4,4-Dimethylpiperidin-1-yl)methyl)phenyl)-9-(6-(isopropylamino)pyrimidin-4-yl)-1,4,9-triazaspiro[5.5]undecan-2-one], for which the “LE (ligand efficiency)” value at METTL3 was 0.24 kcal.mol^-1.heavy atom count^-1. The IC50 against METTL3 (setting [2]) and on METTL3 (TR-FRET assay) was 0.33 µM throughout. Besides, the “LLE (lipophilic ligand efficiency, pIC50-logP)” value at METTL3 is reported as 3.2.
Take `CC1(C)CCN(Cc2ccc(N3CC(=O)NC4(CCN(c5cc(NC6CC6)ncn5)CC4)C3)cc2)CC1` [Compound 16, 9-(6-(Cyclopropylamino)pyrimidin-4-yl)-4-(4-((4,4-dimethylpiperidin-1-yl)methyl)phenyl)-1,4,9-triazaspiro[5.5]undecan-2-one]: the IC50 on METTL3 (setting [2]) and on METTL3 (TR-FRET assay) was 0.084 µM throughout.
Turning to `CC1(C)CCN(Cc2ccc(N3CC(=O)NC4(CCN(c5ncnc6[nH]ccc56)CC4)C3)cc2)CC1` [Compound 17, 4-(4-((4,4-Dimethylpiperidin-1-yl)methyl)phenyl)-9-(7H-pyrrolo[2,3-d]pyrimidin-4-yl)-1,4,9-triazaspiro[5.5]undecan-2-one], the IC50 against METTL3 (setting [2]) and on METTL3 (TR-FRET assay) was 0.061 µM in each case.
`CC1(C)CCN(Cc2ccc(N3CC(=O)NC4(CCN(c5ccnc6[nH]ccc56)CC4)C3)cc2)CC1` [Compound 18]: on METTL3, the “LE (ligand efficiency)” value is on record as 0.20 kcal.mol^-1.heavy atom count^-1; the “LLE (lipophilic ligand efficiency, pIC50-logP)” value was 2.3; the “potency reduction / loss” value was 74 fold. The same molecule yielded an IC50 against METTL3 (TR-FRET assay) of 4.5 µM.
As to `CC1(C)CCN(Cc2ccc(N3CC(=O)NC4(CCN(c5nc(Cl)nc6[nH]ccc56)CC4)C3)cc2)CC1` [Compound 19, 9-(2-Chloro-7H-pyrrolo[2,3-d]pyrimidin-4-yl)-4-(4-((4,4-dimethylpiperidin-1-yl)methyl)phenyl)-1,4,9-triazaspiro[5.5]undecan-2-one], the “LE (ligand efficiency)” value on METTL3 was 0.28 kcal.mol^-1.heavy atom count^-1. In addition, the IC50 against METTL3 (setting [2]) and against METTL3 (TR-FRET assay) was 0.024 µM throughout. At METTL3, the “LLE (lipophilic ligand efficiency, pIC50-logP)” value is 3.9. In addition, in data set [1], the “RLM t1/2” value was 32 min. Besides, the half-life in “in vitro” turned out to be 32 min. The molecule further showed a Kinetic solubility in the data set “Kinetic solubility” of 45 µM. Further, the solubility (kinetic) in “Kinetic solubility” (kinetic from dmso stock) is 45 µM (≈ 23.5 µg/mL).
In the case of `CNc1cc(N2CCC3(CC2)CN(c2ccc(CN4CCC(C)(C)CC4)cc2F)CC(=O)N3)ncn1` [Compound 20, 4-(4-((4,4-Dimethylpiperidin-1-yl)methyl)-2-fluorophenyl)-9-(6-(methylamino)pyrimidin-4-yl)-1,4,9-triazaspiro[5.5]undecan-2-one], the IC50 against METTL3 (setting [2]) and on METTL3 (TR-FRET assay) was 0.038 µM throughout.
On to `CNc1cc(N2CCC3(CC2)CN(c2ccc(CN4CCC(C)(C)CC4)c(F)c2)CC(=O)N3)ncn1` [Compound 21, 4-(4-((4,4-Dimethylpiperidin-1-yl)methyl)-3-fluorophenyl)-9-(6-(methylamino)pyrimidin-4-yl)-1,4,9-triazaspiro[5.5]undecan-2-one], for which the IC50 against METTL3 (setting [2]) and against METTL3 (TR-FRET assay) was 0.032 µM each time.
`CNc1cc(N2CCC3(CC2)CN(c2cc(F)c(CN4CCC(C)(C)CC4)cc2F)CC(=O)N3)ncn1` [Compound 22, 4-(4-((4,4-Dimethylpiperidin-1-yl)methyl)-2,5-difluorophenyl)-9-(6-(methylamino)pyrimidin-4-yl)-1,4,9-triazaspiro[5.5]undecan-2-one]: at METTL3/METTL14, the ΔTm at 100 µM is 4.7 °C.
The same measure, in the same setting: the same measure for `Nc1ncnc2c1ncn2[C@@H]1O[C@H](CSCC[C@H](N)C(=O)O)[C@@H](O)[C@H]1O` [SAH, S-adenosyl-L-homocysteine, reference compound]: 2.8 °C.

Source of the values: US20240139189A1, “N6-ADENOSINE-[…] INHIBITORS IN CANCER TREATMENT” (priority 2021, published 2024).
